Like-named read-outs stand apart in the source and are kept apart here.
Experiments:
RKO cells = assay: Cytotoxicity and IC50 comparison with CBI by WST assay, 48 hours; assay type: cell-based, human; conditions: Homo sapiens, WST-8
Experimental: (§1) From the cell lines mentioned above, a large intestine cancer cell line SW480 was used as cells expressing PD-1, and a large intestine cancer cell line RKO was used as cells expressing PD-L1. An experiment was conducted to compare toxicity and IC50 between the PIP-drug conjugate compound CCC07-01 and the alkylating agent CBI used as a drug conjugate therein. The cells of each line were inoculated at 3000 cells/well to a 96-well microplate and cultured overnight. On the next day, the cells were treated with the PIP-CBI conjugate (CCC07-01) or CBI having a concentration of 0.1, 1, 10, 30, 100, 300, or 1000 nM (1 μM) for 48 hours. Then, WST-8 reagent was added to each well using Cell counting kit-8, and the mixture was reacted for 2 hours. Then, the cell count was calculated at a wavelength of 450 nm by the colorimetric analysis method using a microplate reader. The method for calculating the cell count involved: 1) obtaining the mean value of a medium alone, 2) subtracting the mean value of the medium from each well, 3) obtaining the mean value of DMSO, 4) dividing the medium mean value-subtracted value by the mean value of DMSO and then multiplying by 100, and 5) obtaining the mean value of each treatment group and a standard deviation, and preparing a graph. IC50 was calculated according to the following expression: IC50=10(LOG(A/B)×(50−C)/(D−C)+LOG(B) wherein A: a higher concentration of two concentrations sandwiching 50%, B: a lower concentration of two concentrations sandwiching 50%, C: the rate of inhibition at B, and D: the rate of inhibition at A.

SW480 cells = assay: as above; assay type: cell-based, human; conditions: Homo sapiens, WST-8
Experimental: as §1

[1] = known log-P of calibration compounds; cited from earlier work
[2] = known log-P of calibration compounds; cited from earlier work; remark: listed apart in the source
PD-L1 gene = assay: Experiment to silence PD-L1 gene by real-time PCR, CCC07-03; assay type: cell-based, human
Experimental: (§2) RKO cells were cultured at 1×10^5 cells/well in a 6-well plate. On the next day, the cells were treated with 0, 5, 50, or 500 nM CCC07-03 for 6 hours, 24 hours, or 48 hours. The cells were recovered, and total RNA was extracted therefrom. The extraction employed AllPrep DNA/RNA Mini Kit (Qiagen N.V., CA). Next, cDNA was prepared by reverse transcription with the extracted RNA as a template using Super Script VILO™ Master Mix (Invitrogen Corp., CA) and subjected to qPCR. The qPCR conditions involved a holding stage at 50° C. for 2 min and 95° C. for 10 min, a cycling stage (40 cycles) at 95° C. for 15 sec and at 60° C. for 1 min, and a melt curve stage at 95° C. for 15 sec, at 60° C. for 1 min, at 95° C. for 30 sec, and at 60° C. for 15 sec. A relative expression level was quantified with GAPDH as a control. The PCR of PD-L1 employed the following primer set.

CTLA4 gene [3] = assay: Experiment to silence CTLA4 gene by real-time PCR, CCC07-03; assay type: cell-based, human; conditions: A2058 cells
Experimental: as §2, with “A2058” for “RKO”, “GAPDH (primers: SEQ ID NOs: 21 and 22)” for “GAPDH”, “CTLA4” for “PD-L1”

CTLA4 gene [4] = assay: Study on CTLA4 gene silencing by negative control polyamide CCC07-04; assay type: cell-based, human; conditions: A2058 cells
Experimental: as §2, with “A2058” for “RKO”, “CCC07-04” for “CCC07-03”, “GAPDH (primers: SEQ ID NOs: 21 and 22)” for “GAPDH”, “CTLA4” for “PD-L1”

mouse Pd-11 gene = assay: Experiment to silence mouse Pd-11 gene by real-time PCR; assay type: cell-based; conditions: B16F1 cells
Experimental: as §2, with “B16F1” for “RKO”, “100, 200, 300, 400,” for “5, 50,”, “CCC07-04” for “CCC07-03”, “(3-tubulin” for “GAPDH”, “Pd-11” for “PD-L1”

malignant melanoma = conditions: phase III clinical trial; cited from earlier work
[5] = 24 hours or later after administration

## Oc1cc2c(c3ccccc13)C(CCl)CN2 (stereo not shown) [CBI, 1-chloromethyl-5-hydroxy-1,2-dihydro-3H-benzo [e]indole, reference compound]
RKO cells
  IC50: 3 nM
SW480 cells
  IC50: 10 nM

## N#Cc1ccccc1 [Benzonitrile]
[1]
  logPow: 1.56

## c1ccc2[nH]ccc2c1 [Indole]
[1]
  logPow: 2.14
[2]
  logPow: 2.14

## CCOC(C)=O [Ethyl acetate]
[1]
  logPow: 0.73

## CC(=O)Nc1cn(C)c(C(=O)Nc2cn(C)c(C(=O)Nc3cc(C(=O)NCCC(=O)Nc4cn(C)c(C(=O)Nc5cc(C(=O)Nc6cc(C(=O)NCCCC(=O)Nc7cn(C)c(C(=O)Nc8cn(C)c(C(=O)Nc9cc(C(=O)NCCC(=O)Nc%10cc(C(=O)Nc%11ccc%12[nH]c(C(=O)N%13CC(CCl)c%14c%13cc(O)c%13ccccc%14%13)cc%12c%11)n(C)c%10)n(C)c9)n8)n7)n(C)c6)n(C)c5)n4)n(C)c3)n2)n1 (stereo not shown) [CCC07-03]
PD-L1 gene; RKO cells, 50 nM, 24 hours
  expression of PD-L1: statistically significantly decreased
PD-L1 gene; RKO cells, 500 nM, 6 hours
  expression of PD-L1: tended to be decreased
PD-L1 gene; RKO cells, 5, 50, 500 nM, 48 hours
  expression of PD-L1: decreased according to the concentration
CTLA4 gene [3]; 500 nM, 24 hours
  expression of CTLA-4: markedly decreased
CTLA4 gene [3]; 6 hours
  expression of CTLA-4: elevated

## CC(=O)Nc1cn(C)c(C(=O)Nc2cn(C)c(C(=O)Nc3cc(C(=O)NCCC(=O)Nc4cc(C(=O)Nc5cn(C)c(C(=O)Nc6cn(C)c(C(=O)NCCCC(=O)Nc7cc(C(=O)Nc8cc(C(=O)Nc9cc(C(=O)NCCC(=O)Nc%10cn(C)c(C(=O)Nc%11ccc%12[nH]c(C(=O)N%13CC(CCl)c%14c%13cc(O)c%13ccccc%14%13)cc%12c%11)n%10)n(C)c9)n(C)c8)n(C)c7)n6)n5)n(C)c4)n(C)c3)n2)n1 (stereo not shown) [CCC07-04]
CTLA4 gene [4]; 6 hours
  expression of CTLA-4: elevated
CTLA4 gene [4]; [5]
  state of the cells (cell death suggested): All the cells floated
Mouse Pd-11 gene; 100-500 nM, 6 hours
  expression of Pd-11: statistically significantly decreased
Mouse Pd-11 gene; [5]
  state of the cells (cell death suggested): All the mouse B16F1 cells floated

## ipilimumab: anti-CTLA-4 antibody
Malignant melanoma
  objective response rate (ORR): 11%
